Data: US20020032176A1, “CARCINOGENESIS INHIBITORS” (priority 1996, published 2002)
Read-outs that look alike come from different tables or passages of the source.

Experiments:
[1] = test system: Epstein-Barr virus early antigens in Raji cells; assay type: cell-based, human; conditions: 48 hours
Procedure: Epstein-Barr virus genome inactivating test is carried out as the first-stage screening test of anti-carcinogenesis promoter. In this test, inhibition of virus genome incident with tetradecanoylphorbolacetate (hereinafter called “TPA”) as its promoter, in a culture system of Raji cells is used as an indicator. The mentioned Raji cells are culture cells originated in species of […] lymph and holds Epstein-Barr virus genome inside. This method is not only rapid and quantitative but also available for detection of active substances in a small quantity.

[2] = test system: Raji cells; conditions: 1000 Mol ratio/TPA (20 ng = 32 pmol/ml); 48 hours
Procedure: Measurement conditions of inactivation of Epstein-Barr virus genome incidence, using the acetone extracts and the hexane extracts, are as follows. PRMI1640 added embryonic serums and antibiotics are used as the culture liquid of Raji cells, virus latent infection-human lymphotropic bulbous cells. Under this culture conditions, the rate of natural incidence of Epstein-Barr virus of early antigens are not more than 0.1%. Raji cells, adjusted at the concentration of 1×10^6 cell/ml is cultured for 48 hours at 37° C. in the above described culture liquid after adding 4 mM of n-butyric acid, 20 ng/ml of TPA and 100 μg/ml of test substance. Then cells which generated Epstein-Barr virus early antigens are detected in the indirect immunofluorescence method using serums from epipharynx cancer patients. The ratio of positive cells calculated against the control without adding testisubstance is regarded as inactivation of virus genome incidence. In addition, the same inactivation were measured as varying the concentration of the test substance to 10, μg/ml and 1 μg/ml.

[3] = test system: papilloma on mouse skin; assay: Two-stage carcinogenesis inhibitory test on mouse skin (DMBA initiation, TPA promotion); assay type: in vivo, ICR female mice; conditions: for week after start of promotion on which the first tumor was formed: twice a week, positive control 7th week; for average number of tumors per mouse after 20 weeks: positive control 9.1; for carcinogenesis inhibitory effects (versus positive control tumors per mouse): 85 nmol test substance, after 20 weeks
Procedure: Body hair of one group of 15 ICR female mice (age 6 weeks) on their back were shaved and after 24 hours, applied (100 μg, 390 nmol) of 7,12-dimethylbenz[α]anthracene (hereinafter called “DMBA”) dissolved in acetone (0.1 ml) on their shaved skin of back as an initiation. Since one week later, each group of mice had been treated as follows:
First group: TPA (1 μg, 1.7 nmol) dissolved in acetone (0.1 ml) had been applied for 20 consecutive weeks, twice a week, as a promotion. During this treatment, additional acetone (0.1 ml) was applied on the same part one hour prior to each TPA application. (positive control group). […]
Until the 20th week since the start of a promotion by TPA application, incidence of papilloma on back of mice had been observed once a week. And the rate of mice with papilloma incidence and the average number of papilloma incidence per mouse were evaluated based on the comparison of the positive control group and the second group.
Body hair of one group of 15 ICR female mice (age 6 weeks) on their back were shaved and after 24 hours, applied ([…], 390 nmol) of 7,12-dimethylbenz[α]anthracene (hereinafter called “DMBA”) dissolved in acetone (0.1 ml) on their shaved skin of back as an initiation. Since one week later, each group of mice had been treated as follows:
Second-Fourth group: As the first group, TPA (1 μg, 1.7 nmol) dissolved in acetone (0.1 ml) had been applied for 20 consecutive weeks, twice a week, as a promotion but 85 nmol of test substance (capsanthin group) dissolved in acetone(0.1 ml) (separated by removing methanol extracts solvent), was applied one hour prior to each application instead of additional acetone. Each test substance was for Second group: Capsanthin, Third group: Capsanthin monoester, Fourth group: Capsanthin diester

[4] = 10 Mol ratio/TPA (20 ng = 32 pmol/ml)
[5] = 100 Mol ratio/TPA (20 ng = 32 pmol/ml)
[6] = 500 Mol ratio/TPA (20 ng = 32 pmol/ml)
[7] = 1000 Mol ratio/TPA (20 ng = 32 pmol/ml)
[8] = 85 nmol test substance on skin one hour prior to each TPA application

Row | Compound | % inhibitory rate [1, 4] | % inhibitory rate [1, 5] | % inhibitory rate [1, 6] | % inhibitory rate [1, 7] | % survival rate of Raji cells [2] | week after start of promotion on which the first tumor was formed [3, 8] | average number of tumors per mouse after 20 weeks [3, 8] | carcinogenesis inhibitory effects (versus positive control tumors per mouse) [3] | mice still free from tumor formation at the end of the 20-week experiment ([3]; 85 nmol test substance on skin one hour prior to each TPA application, 20 weeks)
1 | capsorubin diester | 7.2% | 28.0% | 73.9% | 100% | 70% | – | – | – | –
2 | CC1=C(/C=C/C(C)=C/C=C/C(C)=C/C=C/C=C(C)/C=C/C=C(C)/C=C/C2=C(C)CCCC2(C)C)C(C)(C)CCC1 [β-Carotene, reference compound] | 0% | 10.6% | 75.0% | 97.5% | 70% | – | – | – | –
3 | capsorubin | 0% | 19.9% | 64.1% | 100% | 70% | – | – | – | –
4 | CC1=C(/C=C/C(C)=C/C=C/C(C)=C/C=C/C=C(C)/C=C/C=C(C)/C=C/C(=O)[C@]2(C)C[C@@H](O)CC2(C)C)C(C)(C)C[C@H](O)C1 [Capsanthin, capsanthin] | 0% | 17.6% | 59.7% | 91.4% | 70% | 7 week | 7.2 | approximately 23% | –
5 | capsanthin monoester | 4.1% | 26.6% | 68.4% | 96.8% | 70% | 9 week | 6,5 | ~31% | –
6 | CC(/C=C/C=C(C)/C=C/C(=O)[C@]1(C)C[C@@H](O)CC1(C)C)=C\C=C\C=C(C)\C=C\C=C(C)\C=C\[C@@]12O[C@@H](CC1(C)C)C[C@@]2(C)O [Capsantlim 3,6-epoxide, capsanthin 3,6-epoxide] | 5.4% | 20.8% | 67.2% | 100% | 70% | – | – | – | –
7 | capsanthin diester | 9.6% | 30.7% | 75.5% | 100% | 70% | 9 week | 4.5 | ~45% | 13.3%
8 | cucurbitaxanthin A-3′ esters [Cucurbitaxanthin-A-3′-ester] | 0% | 13.8% | 61.0% | 100% | 70% | – | – | – | –
